The source made the active and inactive calls. The rule behind the calls is not given here.
Columns and labels:
Escherichia coli = assay: Antibacterial activity against Escherichia coli after 24 hr by agar diffusion technique; format: functional
[1] = Induction of DNA fragmentation using ethidium bromide staining by agarose gel electrophoresis

Structure (SMILES) | diameter of the inhibition zone (DIZ) (Escherichia coli) [mm] | Activity [1]
Cc1ccc(N/N=C2/SC3=NCN(c4ccccc4)CN3C2=O)cc1 | 13 | Active
N=C1NC(=O)CS1 | 14 | Active
CC1(C)S[C@@H]2[C@H](NC(=O)[C@H](N)c3ccccc3)C(=O)N2[C@H]1C(=O)O [AMPICILLIN] | 21 | –
O=C1CSC2=NCN(c3ccccc3)CN12 | 26 | Active
CN(C)/C=c1\sc2n(c1=O)CN(c1ccccc1)CN=2 | 26 | Active
N=C1NC(=O)/C(=C/c2ccccc2)S1 | 15 | Active
CSC(=S)C1Sc2nc(=S)sc(=S)n2C1=O (centres undefined) | 14 | Active
O=c1/c(=C/c2ccc(/C=c3/sc4n(c3=O)CN(c3ccccc3)CN=4)cc2)sc2n1CN(c1ccccc1)CN=2 | 14 | Active
O=c1/c(=C/c2ccc(Cl)cc2)sc2n1CN(c1ccccc1)CN=2 | 14 | Active
O=c1/c(=C/c2ccc3c(c2)OCO3)sc2n1CN(c1ccccc1)CN=2 | 14 | Active

From ChEMBL document CHEMBL3046166, “Synthesis and biological evaluation of some new Thiazolo[3,2-a][1,3,5]triazine derivatives” (2012)
